Reference: patent publication US9701689B2, “Substituted pyridines and pyridazines as CCR10 receptor inhibitors” (KYOWA HAKKO KIRIN CO., LTD., priority 2012, dated 2017)

Biological target: T1, human CCR10 (Homo sapiens, UniProt P46092)
T1 construct: expressed in transfected cells; host or cells: KJMGER8 cells (Namalwa cell-derived line), beta-estradiol-induced; hCCR10G16 cells
T1 sequence (P46092 1-362): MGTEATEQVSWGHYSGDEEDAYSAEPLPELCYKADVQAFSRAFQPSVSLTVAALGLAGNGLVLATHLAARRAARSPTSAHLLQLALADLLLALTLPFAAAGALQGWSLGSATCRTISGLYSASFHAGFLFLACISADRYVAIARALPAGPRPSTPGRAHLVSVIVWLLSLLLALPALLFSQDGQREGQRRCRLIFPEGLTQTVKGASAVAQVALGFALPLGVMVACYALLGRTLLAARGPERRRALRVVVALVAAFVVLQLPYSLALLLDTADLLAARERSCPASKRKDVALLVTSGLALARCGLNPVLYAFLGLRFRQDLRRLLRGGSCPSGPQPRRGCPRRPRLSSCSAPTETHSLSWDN
Test: CCR10 antagonistic effect: calcium assay of human CCR10 (CTACK-induced increase of intracellular calcium in hCCR10G16 cells)
Assay type: cell-based
Conditions: at a concentration of not more than 1000 nmol/L; human CCR10-expressing hCCR10G16 cells, 300 nmol/L CTACK added; read-out: inhibition of increase in the calcium ion concentration
Outline: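 KJMGER8-derived hCCR10G16 cells (CCR10 plus Gα16, induced 24 h with 10 nmol/L β-estradiol), Fluo-3 loaded, preincubated with compound 30 min at 37 °C. Stimulated with CTACK (300 nmol/L solution before addition); calcium read ~5 min by FDSS, max−min fluorescence; % inhibition vs control.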

Cc1cc(C)cc(Nc2cc(S(N)(=O)=O)ncc2C(=O)N2CCC(c3ccc(F)cc3)CC2)c1 [Compound 110, 4-(3,5-dimethylphenylamino)-5-[4-(4-fluorophenyl)piperidine-1-carbonyl]pyridine-2-sulfonamide]
inhibition at up to 1 µM: ≥ 50%

CNS(=O)(=O)c1cc(Nc2ccc(F)cc2C)c(C(=O)N2CCC(c3ccc(F)cc3)CC2)cn1 [Compound 111, 4-(4-fluoro-2-methylphenylamino)-5-[4-(4-fluorophenyl)piperidine-1-carbonyl]-N-methylpyridine-2-sulfonamide]
inhibition at up to 1 µM: ≥ 50%

COCCNS(=O)(=O)c1cc(Nc2ccc(F)cc2C)c(C(=O)N2CCC(c3ccc(F)cc3)CC2)cn1 [Compound 112, 4-(4-fluoro-2-methylphenylamino)-5-[4-(4-fluorophenyl)piperidine-1-carbonyl]-N-(2-methoxyethyl)pyridine-2-sulfonamide]
inhibition at up to 1 µM: ≥ 50%

COC(=O)C1CCCN1S(=O)(=O)c1cc(Nc2ccc(F)cc2C)c(C(=O)N2CCC(c3ccc(F)cc3)CC2)cn1 (stereo not drawn) [Compound 116, methyl 1-{4-(4-fluoro-2-methylphenylamino)-5-[4-(4-fluorophenyl)piperidine-1-carbonyl]pyridin-2-ylsulfonyl}pyrrolidine-2-carboxylate]
inhibition at up to 1 µM: ≥ 50%

CNC(=O)C1CCCN1S(=O)(=O)c1cc(Nc2ccc(F)cc2C)c(C(=O)N2CCC(c3ccc(F)cc3)CC2)cn1 (stereo not drawn) [Compound 117, 1-{4-(4-fluoro-2-methylphenylamino)-5-[4-(4-fluorophenyl)piperidine-1-carbonyl]pyridin-2-ylsulfonyl}-N-methylpyrrolidine-2-carboxamide]
inhibition at up to 1 µM: ≥ 50%

Cc1cc(F)ccc1Nc1cc(S(=O)(=O)N2CCCC2)ncc1C(=O)N1CCC(c2ccc(F)cc2)CC1 [Compound 119, [4-(4-fluoro-2-methylphenylamino)-6-(pyrrolidin-1-ylsulfonyl)pyridin-3-yl][4-(4-fluorophenyl)piperidin-1-yl]methanone]
inhibition at up to 1 µM: ≥ 50%

Cc1cc(F)ccc1Nc1cc(S(=O)(=O)N2CCCC2C(=O)O)ncc1C(=O)N1CCC(c2ccc(F)cc2)CC1 (stereo not drawn) [Compound 120, 1-{4-(4-fluoro-2-methylphenylamino)-5-[4-(4-fluorophenyl)piperidine-1-carbonyl]pyridin-2-ylsulfonyl}pyrrolidine-2-carboxylic acid]
inhibition at up to 1 µM: ≥ 50%

Cc1cc(F)ccc1Nc1cc(S(=O)(=O)N2CCCCC2)ncc1C(=O)N1CCC(c2ccc(F)cc2)CC1 [Compound 121, [4-(4-fluoro-2-methylphenylamino)-6-(piperidin-1-ylsulfonyl)pyridin-3-yl][4-(4-fluorophenyl)piperidin-1-yl]methanone]
inhibition at up to 1 µM: ≥ 50%

Cc1cc(F)ccc1Nc1cc(S(=O)(=O)N2CCOCC2)ncc1C(=O)N1CCC(c2ccc(F)cc2)CC1 [Compound 122, [4-(4-fluoro-2-methylphenylamino)-6-(morpholinosulfonyl)pyridin-3-yl][4-(4-fluorophenyl)piperidin-1-yl]methanone]
inhibition at up to 1 µM: ≥ 50%

Cc1cc(F)ccc1Nc1cc(S(=O)(=O)N2CCCC2C(N)=O)ncc1C(=O)N1CCC(c2ccc(F)cc2)CC1 (stereo not drawn) [Compound 123, 1-{4-(4-fluoro-2-methylphenylamino)-5-[4-(4-fluorophenyl)piperidine-1-carbonyl]pyridin-2-ylsulfonyl}pyrrolidine-2-carboxamide]
inhibition at up to 1 µM: ≥ 50%

CC(=O)N1CCN(S(=O)(=O)c2cc(Nc3ccc(F)cc3C)c(C(=O)N3CCC(c4ccc(F)cc4)CC3)cn2)CC1 [Compound 124, 1-{4-{4-(4-fluoro-2-methylphenylamino)-5-[4-(4-fluorophenyl)piperidine-1-carbonyl]pyridin-2-ylsulfonyl}piperazin-1-yl}ethanone]
inhibition at up to 1 µM: ≥ 50%

Cc1cc(F)ccc1Nc1cc(S(=O)(=O)N(C)C)ncc1C(=O)N1CCC(c2ccc(F)cc2)CC1 [Compound 125, 4-(4-fluoro-2-methylphenylamino)-5-[4-(4-fluorophenyl)piperidine-1-carbonyl]-N,N-dimethylpyridine-2-sulfonamide]
inhibition at up to 1 µM: ≥ 50%

Cc1cc(F)ccc1Nc1cc(S(=O)(=O)NCC(=O)N2CCOCC2)ncc1C(=O)N1CCC(c2ccc(F)cc2)CC1 [Compound 130, 4-(4-fluoro-2-methylphenylamino)-5-[4-(4-fluorophenyl)piperidine-1-carbonyl]-N-(2-morpholino-2-oxoethyl)pyridine-2-sulfonamide]
inhibition at up to 1 µM: ≥ 50%

CC(=O)CNS(=O)(=O)c1cc(Nc2ccc(F)cc2C)c(C(=O)N2CCC(c3ccc(F)cc3)CC2)cn1 [Compound 131, 4-(4-fluoro-2-methylphenylamino)-5-[4-(4-fluorophenyl)piperidine-1-carbonyl]-N-(2-oxopropyl)pyridine-2-sulfonamide]
inhibition at up to 1 µM: ≥ 50%

Cc1cnc(CNS(=O)(=O)c2cc(Nc3ccc(F)cc3C)c(C(=O)N3CCC(c4ccc(F)cc4)CC3)cn2)cn1 [Compound 134, 4-(4-fluoro-2-methylphenylamino)-5-[4-(4-fluorophenyl)piperidine-1-carbonyl]-N-[(5-methylpyrazin-2-yl)methyl]pyridine-2-sulfonamide]
inhibition at up to 1 µM: ≥ 50%

Cc1cc(F)ccc1Nc1cc(S(=O)(=O)NCC#N)ncc1C(=O)N1CCC(c2ccc(F)cc2)CC1 [Compound 135, N-(cyanomethyl)-4-(4-fluoro-2-methylphenylamino)-5-[4-(4-fluorophenyl)piperidine-1-carbonyl]pyridine-2-sulfonamide]
inhibition at up to 1 µM: ≥ 50%

CC(=O)NC1CCN(S(=O)(=O)c2cc(Nc3ccc(F)cc3C)c(C(=O)N3CCC(c4ccc(F)cc4)CC3)cn2)CC1 [Compound 136, N-{1-{4-(4-fluoro-2-methylphenylamino)-5-[4-(4-fluorophenyl)piperidine-1-carbonyl]pyridin-2-ylsulfonyl}piperidin-4-yl}acetamide]
inhibition at up to 1 µM: ≥ 50%

Cc1cc(F)ccc1Nc1cc(S(=O)(=O)N2CCC(C(N)=O)CC2)ncc1C(=O)N1CCC(c2ccc(F)cc2)CC1 [Compound 138, 1-{4-(4-fluoro-2-methylphenylamino)-5-[4-(4-fluorophenyl)piperidine-1-carbonyl]pyridin-2-ylsulfonyl}piperidine-4-carboxamide]
inhibition at up to 1 µM: ≥ 50%

CNC(=O)[C@@H]1C[C@@H](O)CN1S(=O)(=O)c1cc(Nc2ccc(F)cc2C)c(C(=O)N2CCC(c3ccc(F)cc3)CC2)cn1 [Compound 141, (2S,4R)-1-{4-(4-fluoro-2-methylphenylamino)-5-[4-(4-fluorophenyl)piperidine-1-carbonyl]pyridin-2-ylsulfonyl}-4-hydroxy-N-methylpyrrolidine-2-carboxamide]
inhibition at up to 1 µM: ≥ 50%

Cc1cc(F)ccc1Nc1cc(S(=O)(=O)NC2CCNC2=O)ncc1C(=O)N1CCC(c2ccc(F)cc2)CC1 (stereo not drawn) [Compound 142, 4-(4-fluoro-2-methylphenylamino)-5-[4-(4-fluorophenyl)piperidine-1-carbonyl]-N-(2-oxopyrrolidin-3-yl)pyridine-2-sulfonamide]
inhibition at up to 1 µM: ≥ 50%

Cc1cc(F)ccc1Nc1cc(S(=O)(=O)N2CCOC2=O)ncc1C(=O)N1CCC(c2ccc(F)cc2)CC1 [Compound 143, 3-{4-(4-fluoro-2-methylphenylamino)-5-[4-(4-fluorophenyl)piperidine-1-carbonyl]pyridin-2-ylsulfonyl}oxazolidin-2-one]
inhibition at up to 1 µM: ≥ 50%

Cc1cc(F)ccc1Nc1cc(S(=O)(=O)N2CCNC2=O)ncc1C(=O)N1CCC(c2ccc(F)cc2)CC1 [Compound 144, 1-{4-(4-fluoro-2-methylphenylamino)-5-[4-(4-fluorophenyl)piperidine-1-carbonyl]pyridin-2-ylsulfonyl}imidazolidin-2-one]
inhibition at up to 1 µM: ≥ 50%

Cc1cc(F)ccc1Nc1cc(S(=O)(=O)Nc2ncccn2)ncc1C(=O)N1CCC(c2ccc(F)cc2)CC1 [Compound 145, 4-(4-fluoro-2-methylphenylamino)-5-[4-(4-fluorophenyl)piperidine-1-carbonyl]-N-(pyrimidin-2-yl)pyridine-2-sulfonamide]
inhibition at up to 1 µM: ≥ 50%

Cc1cc(F)ccc1Nc1cc(S(=O)(=O)Nc2ccccn2)ncc1C(=O)N1CCC(c2ccc(F)cc2)CC1 [Compound 146, 4-(4-fluoro-2-methylphenylamino)-5-[4-(4-fluorophenyl)piperidine-1-carbonyl]-N-(pyridin-2-yl)pyridine-2-sulfonamide]
inhibition at up to 1 µM: ≥ 50%

Cc1cc(F)ccc1Nc1cc(S(=O)(=O)Nc2ncc(Br)cn2)ncc1C(=O)N1CCC(c2ccc(F)cc2)CC1 [Compound 147, N-(5-bromopyrimidin-2-yl)-4-(4-fluoro-2-methylphenylamino)-5-[4-(4-fluorophenyl)piperidine-1-carbonyl]pyridine-2-sulfonamide]
inhibition at up to 1 µM: ≥ 50%

Cc1cc(F)ccc1Nc1cc(S(=O)(=O)Nc2nccs2)ncc1C(=O)N1CCC(c2ccc(F)cc2)CC1 [Compound 148, 4-(4-fluoro-2-methylphenylamino)-5-[4-(4-fluorophenyl)piperidine-1-carbonyl]-N-(thiazol-2-yl)pyridine-2-sulfonamide]
inhibition at up to 1 µM: ≥ 50%

Cc1cc(F)ccc1Nc1cc(S(=O)(=O)Nc2nccn2C)ncc1C(=O)N1CCC(c2ccc(F)cc2)CC1 [Compound 149, 4-(4-fluoro-2-methylphenylamino)-5-[4-(4-fluorophenyl)piperidine-1-carbonyl]-N-(1-methyl-1H-imidazol-2-yl)pyridine-2-sulfonamide]
inhibition at up to 1 µM: ≥ 50%
